The structures appear in SMILES notation.

Cholinesterase, sequence (P06276 whole entry): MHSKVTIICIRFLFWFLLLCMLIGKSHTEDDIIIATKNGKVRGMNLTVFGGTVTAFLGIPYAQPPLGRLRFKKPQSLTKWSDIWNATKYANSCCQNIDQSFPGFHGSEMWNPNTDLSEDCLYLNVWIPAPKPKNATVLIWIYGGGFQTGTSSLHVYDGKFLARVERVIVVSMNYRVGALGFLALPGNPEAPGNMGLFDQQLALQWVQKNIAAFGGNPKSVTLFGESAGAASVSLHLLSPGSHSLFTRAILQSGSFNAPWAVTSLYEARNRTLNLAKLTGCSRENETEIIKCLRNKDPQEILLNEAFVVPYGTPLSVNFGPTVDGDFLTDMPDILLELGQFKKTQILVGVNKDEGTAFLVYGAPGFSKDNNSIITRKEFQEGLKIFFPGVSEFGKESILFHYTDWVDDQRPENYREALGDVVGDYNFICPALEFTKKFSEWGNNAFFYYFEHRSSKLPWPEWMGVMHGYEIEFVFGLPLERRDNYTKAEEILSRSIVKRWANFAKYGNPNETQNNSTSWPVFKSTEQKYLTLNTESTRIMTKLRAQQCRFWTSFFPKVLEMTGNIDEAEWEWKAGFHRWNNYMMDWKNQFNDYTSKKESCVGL

The test has as its target Cholinesterase (Homo sapiens, UniProt P06276). Kind of test: Inhibitory activity against butyrylcholinesterase (BChE) in human […].
In general, IC50 refers to the concentration needed to halve the response being measured. High values mean weaker potency in that assay, low ones greater potency in that assay. With `CNC(=O)Oc1ccc2c(c1)OC[C@@H]1CCN(C)[C@H]21` [(3aR,9bS)-1-methyl-1,2,3,3a,4,9b-hexahydrochromeno[4,3-b]pyrrol-7-yl methylcarbamate], 3.55 µM corresponded to half-maximal inhibition (IC50).
The figure for `CNC(=O)Oc1cccc2c1OC[C@@H]1CCN(C)[C@H]21` [(2S,6R)-3-methyl-8-oxa-3-azatricyclo[7.4.0.0^{2,6}]trideca-1(13),9,11-trien-10-yl N-methylcarbamate] is 0.054 µM; for `CNC(=O)Oc1ccc2c(c1)OC[C@@H]1CC[N+](C)(C)[C@H]21` it is 2.95 µM.
`CN1CC[C@H]2COc3c(O)cccc3[C@H]21` yielded an IC50 of 794 µM.
The figure for `O=C(CCCCCCC(=O)NCCCCCCN1CC[C@H]2COc3ccccc3[C@H]21)NCCCCCCN1CC[C@H]2COc3ccccc3[C@H]21` is 0.912 µM; for `CNC(=O)Oc1ccc2c(c1)[C@@H]1[C@@H](CCN1C)CO2` it is 10.2 µM.

These data come from BindingDB's records for doi:10.1021/jm000991r (University of Bologna, 2001).
